Results on 96 compounds are retold here after ChEMBL document CHEMBL3507680, “University of Dundee, Gates Library screen for HepG2 cell viability”.

The structures appear in SMILES notation.

The data set is described as follows: Human HepG2 cell viability assay in 384 well format. The format is toxicity, cell-based. Also noted: dose 125 nL, time 70.5 hour; cytotoxicity at 70.5 h: concentration not given beside the values. As to conditions: HepG2 cells, read-out: Inhibition.
`CN(Cc1csc(-c2ccccc2)n1)Cc1ncccc1C(=O)O`: the cytotoxicity at 70.5 h was determined as 11.5%.

In the case of `COC(=O)CNC(=O)c1cn(Cc2ccccc2F)nn1`, the cytotoxicity at 70.5 h is -5.61%.

Consider `COc1ccc(CN2CC[C@@H](N)[C@@H](OC)C2)cc1Cn1cncn1`, for which the cytotoxicity at 70.5 h was -6.47%.

For `COc1ccc(NC(=O)CCN2CC=C(c3cnn(C)c3)CC2)c(C)c1`, the cytotoxicity at 70.5 h was 2.12%.

Turning to `CN(Cc1cc(C(C)(C)C)n[nH]1)C(=O)CCC(=O)NC1CCCC1`, the cytotoxicity at 70.5 h was -9.2%.

On to `CCCN(CCO)C(=O)c1cc(COc2ccc3c(c2)CCCC3)on1`, for which the cytotoxicity at 70.5 h came out at 11.2%.

With `O=C(CCC1CCN(C(=O)c2cc[nH]c2)CC1)NCc1cccc(Cl)c1`, the cytotoxicity at 70.5 h was -9.67%.

For the compound `CCC(C)N(Cc1ccsc1)C(=O)c1ccc(CO)cc1` (stereo unspecified), the cytotoxicity at 70.5 h is -0.23%.

Turning to `O=C(O)COc1ccc(Cl)cc1CN1CCC2(CCOCC2)CC1`, the cytotoxicity at 70.5 h turned out to be 2.03%.

Regarding `CSCC[C@H](NC(C)=O)C(=O)N(C)Cc1ccc(-n2cccn2)cc1`, the cytotoxicity at 70.5 h was 23.9%.

For the compound `NCC1CN(C(=O)Cn2ncc(N3CCCCC3)cc2=O)CCO1` (stereo unspecified), the cytotoxicity at 70.5 h was -2.61%.

Regarding `CN(CCCc1nccn1C)C(=O)C1CCN(C(=O)C2CC2)CC1`, the cytotoxicity at 70.5 h was 0.477%.

As to `Cc1cccc(CNCC2(O)CCCN(CC3CCCCC3)C2=O)n1` (stereo unspecified), the cytotoxicity at 70.5 h was -5.28%.

`CC(=O)c1cccc(-c2c[nH]c(C)n2)c1`: the cytotoxicity at 70.5 h is -7.11%.

On to `Cc1nc(CNC(=O)c2cc(Cn3ccnc3C(C)C)[nH]n2)sc1C`, for which the cytotoxicity at 70.5 h is -14.3%.

As to `CCC(CO)N(Cc1ccccn1)C(=O)c1ccc(C)c(Cl)c1` (stereo unspecified), the cytotoxicity at 70.5 h was -5.65%.

In the case of `COc1cccc2c1OCC(CNc1cc(N)nc(SC)n1)C2` (stereo unspecified), the cytotoxicity at 70.5 h was -8.3%.

Regarding `Cc1cnc(NC(=O)c2cccc(CN(C)Cc3ccno3)c2)s1`, the cytotoxicity at 70.5 h was -4.32%.

Regarding `c1cnc2ccc(C[C@@H]3CC[C@H](CN4CCCOCC4)O3)cc2c1`, the cytotoxicity at 70.5 h is -10.1%.

Regarding `CCSc1ncc(CN2CCN(c3ncc(C)c(N)n3)CC2)cn1`, the cytotoxicity at 70.5 h was -9.95%.

In the case of `CN(CCc1ccccc1)c1cnn(Cc2ccccn2)c(=O)c1`, the cytotoxicity at 70.5 h is -4.29%.

`O=C(Nc1ccccc1CCO)c1cccc(CN2CC[C@H](O)C2)c1`: the cytotoxicity at 70.5 h was -8.22%.

Regarding `CN(Cc1csc(-c2cccs2)n1)C(=O)CCn1ccc(=O)[nH]c1=O`, the cytotoxicity at 70.5 h was found to be 10.9%.

With `COc1ccc2c(=O)n(CC3CCCCN3C)ccc2c1OC` (stereo unspecified), the cytotoxicity at 70.5 h was -4.5%.

For the compound `Cc1cccc(C(C(=O)N2CC(c3cccnc3)C2)N(C)C)c1` (stereo unspecified), the cytotoxicity at 70.5 h is -0.966%.

With `CCN(C)C(=O)c1ccc(N(C)Cc2cc(-c3cccnc3)no2)nc1`, the cytotoxicity at 70.5 h came out at 0.809%.

`CCO[C@H]1CN(C)C[C@@H]1NC(=O)c1cc(C)nc2c(C)c(C)ccc12`: the cytotoxicity at 70.5 h is -6.51%.

`CC(C)c1cc(C(=O)N2CCC3(CC2)c2ccccc2[C@@H](N)[C@@H]3O)cs1`: the cytotoxicity at 70.5 h is -10.7%.

For the compound `O=C(O)CSc1nnc(-c2ccn[nH]2)n1-c1ccccc1C(F)(F)F`, the cytotoxicity at 70.5 h was -3.95%.

Regarding `CCC1(C(=O)O)CCCN(C(=O)c2ccc(O)c(Cl)c2)C1` (stereo unspecified), the cytotoxicity at 70.5 h was -4.39%.

For `C[C@@H]1CN(CC(=O)NCc2ccccn2)C[C@]1(C)O`, the cytotoxicity at 70.5 h was -1.62%.

As to `CC(C)c1nc(C(=O)N2C[C@H]3CC[C@@H]2CN(C2CCOCC2)C3)cs1`, the cytotoxicity at 70.5 h was -7.88%.

For the compound `CCCc1nc(N2CCCC3(CCNC3)C2)c2cnn(C)c2n1` (stereo unspecified), the cytotoxicity at 70.5 h was -7.26%.

Turning to `CN1[C@@H](c2ccccc2)[C@@H](C(=O)NCc2ccncc2)C[C@@]1(C)C(=O)O`, the cytotoxicity at 70.5 h was -22.3%.

Regarding `O=C(N1CCCC1)N1CCC(c2nccn2Cc2cscn2)CC1`, the cytotoxicity at 70.5 h was -5.23%.

Consider `COc1ccccc1CCN1CCCC(CN(C)Cc2cc(C)n[nH]2)C1` (stereo unspecified), for which the cytotoxicity at 70.5 h is -8.68%.

Regarding `CCCn1cc(-c2cc(C(=O)N(C)C)c3ccc(C)cc3n2)cn1`, the cytotoxicity at 70.5 h was -9.76%.

On to `Cc1cc(CNC(=O)C2CCN(CC(N)=O)CC2)cc(C)n1`, for which the cytotoxicity at 70.5 h is -6.5%.

In the case of `Cc1cnn(-c2cncc(C(N)=O)c2)c1`, the cytotoxicity at 70.5 h was -5.78%.

As for `Cc1cccc(OCC2CCCN(C(=O)CCn3ccccc3=O)C2)c1` (stereo unspecified), the cytotoxicity at 70.5 h is -11.2%.

`CC(Cn1cccn1)C(=O)N1CCC(NS(C)(=O)=O)CC1` (stereo unspecified): the cytotoxicity at 70.5 h is -6.23%.

For `Cc1cc(N[C@H](CO)COCc2ccccc2)n2nc(C)cc2n1`, the cytotoxicity at 70.5 h is -0.86%.

In the case of `Cc1ccc(OC2(C(=O)O)CCN(C/C=C/c3ccco3)CC2)c(C)n1`, the cytotoxicity at 70.5 h was -7.06%.

Take `CCC[C@@H]1CN(Cc2cc3c(cc2OC)OCCO3)C[C@H]1C(=O)O`: the cytotoxicity at 70.5 h was -1.36%.

With `CSCC(=O)N[C@H]1CN(CC2CCOCC2)C[C@@H]1c1ccccc1`, the cytotoxicity at 70.5 h was -4.95%.

Take `N#Cc1ccccc1CN1CCCC(c2nccn2CC2CCC2)C1` (stereo unspecified): the cytotoxicity at 70.5 h is -11%.

`c1ccc(-c2ncc(CN3CCCCC3CCn3cccn3)cn2)nc1` (stereo unspecified): the cytotoxicity at 70.5 h was -4.71%.

Take `CCc1cnc(N)nc1N[C@@H](C)c1ncccc1C`: the cytotoxicity at 70.5 h was -12.4%.

For `COCCN1CCCC2(CCN(Cc3noc(C4CCCC4)n3)C2)C1=O` (stereo unspecified), the cytotoxicity at 70.5 h is -4.8%.

As for `c1cn(Cc2ccc(N3CCCN(C4CCCC4)CC3)nc2)cn1`, the cytotoxicity at 70.5 h came to 38.7%.

Turning to `COc1ccc(F)c(CN2CCCC3(CCN(C(=O)CSC)C3)C2)c1` (stereo unspecified), the cytotoxicity at 70.5 h was 8.81%.

Consider `Cc1cc(C(=O)N2CCCC(c3nccn3C)C2)cc(S(N)(=O)=O)c1C` (stereo unspecified), for which the cytotoxicity at 70.5 h was -5.68%.

On to `COc1cccc([C@@H]2CN(C3CCCC3)C[C@H]2C(=O)O)c1`, for which the cytotoxicity at 70.5 h is -2.63%.

In the case of `Cc1cnc(NC(C)Cc2cccnc2)nc1N(C)C` (stereo unspecified), the cytotoxicity at 70.5 h came out at 0.166%.

Consider `Cc1cc(C(N)=O)c(N2C[C@@H](C)[C@@](C)(O)C2)nc1C`, for which the cytotoxicity at 70.5 h is -7.31%.

As to `COc1ccc(CN2CC3(CCNCC3)CCC2=O)c(F)c1F`, the cytotoxicity at 70.5 h turned out to be 15.3%.

Take `CC(C)(C)c1cc(CNC(=O)c2cc(COc3ccccc3)[nH]n2)[nH]n1`: the cytotoxicity at 70.5 h turned out to be 8.48%.

Take `Cc1nc(N)nc(C)c1CC(=O)N1CCC2(CC1)OCCCC2O` (stereo unspecified): the cytotoxicity at 70.5 h is -13.9%.

Consider `CCC[C@@H]1CN(Cc2cnc(-c3cccs3)nc2)C[C@H]1C(=O)O`, for which the cytotoxicity at 70.5 h was -0.697%.

For `O=C(c1ccc(C2CCCN2)s1)N1CCC2(CCCO2)CC1` (stereo unspecified), the cytotoxicity at 70.5 h is -6.68%.

Turning to `CCn1c(C2CCNCC2)nn(CCn2ccc(C)n2)c1=O`, the cytotoxicity at 70.5 h was -21.2%.

Consider `CCC(Nc1nc(C)nc2c1cnn2C)c1ncnn1CC` (stereo unspecified), for which the cytotoxicity at 70.5 h is -1.28%.

With `CC(C)c1cc(C(=O)N2CCN(c3ccc(F)c(Cl)c3)CC2)n(C)n1`, the cytotoxicity at 70.5 h was -4.92%.

For the compound `COc1ccc(C2(C(=O)NCc3c(C)ncc4c3CCNC4)CC2)cc1`, the cytotoxicity at 70.5 h was -5.87%.

As for `O=C(O)C1(Cc2ccc(F)cc2F)CCCN(Cc2ccncc2)C1` (stereo unspecified), the cytotoxicity at 70.5 h was -5.04%.

For `Cc1nccn1CCN(C)c1nc(-c2ccc(Cl)cc2)nc2c1CNC2`, the cytotoxicity at 70.5 h was -3.99%.

On to `Cn1c(CN2CCOCC2)nnc1C1CCCN(C(=O)CCC2CC2)C1` (stereo unspecified), for which the cytotoxicity at 70.5 h is -6.43%.

In the case of `CSc1nccc(N2CCC3(CCCN(CCc4ccccc4)C3)C2)n1` (stereo unspecified), the cytotoxicity at 70.5 h is 6.79%.

Turning to `COCCn1cncc1-c1nc2c([nH]1)CC(C)(C)CNC2=O`, the cytotoxicity at 70.5 h was -4.1%.

Turning to `CN1CCC(N2CCN(C(C(=O)O)c3cccc4c3OCC4)CC2)CC1` (stereo unspecified), the cytotoxicity at 70.5 h came to 2.04%.

For the compound `O=C(NCCCSC1CCCCC1)C1NCCc2[nH]cnc21` (stereo unspecified), the cytotoxicity at 70.5 h was -1.27%.

Turning to `CC(=O)N1CCC(NCc2cccnc2N(C)Cc2ccccc2)CC1`, the cytotoxicity at 70.5 h is -6.72%.

With `CNc1ncc(CN(C)c2ncnc3onc(C)c23)cn1`, the cytotoxicity at 70.5 h amounted to 8.52%.

As for `CCOc1ccc(Cl)cc1C(C(=O)O)N1CCCC1` (stereo unspecified), the cytotoxicity at 70.5 h is -2.88%.

For `Cc1nccn1CCN(C)C(=O)C1CCCN(C2CCOCC2)C1` (stereo unspecified), the cytotoxicity at 70.5 h is -4.07%.

Consider `O=C(O)[C@@H]1CN(Cc2c[nH]c(CC3CCCC3)n2)C[C@H]1c1ccncc1`, for which the cytotoxicity at 70.5 h was -4.68%.

As to `C=C(C)COc1cccc(CNCc2nc3ccccc3c(=O)[nH]2)c1`, the cytotoxicity at 70.5 h was found to be 0.0265%.

For `O=C(c1cnccn1)N1C[C@@H]2CC[C@H](C1)N(S(=O)(=O)c1cccnc1)C2`, the cytotoxicity at 70.5 h is 7.54%.

For `O=C([C@H](O)c1ccccc1)N1CCN(c2cccc(Cl)c2)C(=O)C1`, the cytotoxicity at 70.5 h came out at 13.8%.

In the case of `c1ccc(Cn2cccn2)c(CN2CCC3(CCCNC3)C2)c1` (stereo unspecified), the cytotoxicity at 70.5 h is 0.428%.

Regarding `COc1ccc(OC2CCN(C(=O)CCc3n[nH]c(C)n3)CC2)cc1`, the cytotoxicity at 70.5 h turned out to be 22.6%.

With `CCN1CCN(C[C@@H]2CN(Cc3cnc(C(C)C)nc3)C[C@@H]2CO)CC1`, the cytotoxicity at 70.5 h came out at 13.2%.

As to `CCOC(=O)c1coc(N2CCN(Cc3cccc(OC)c3)C(=O)C2)n1`, the cytotoxicity at 70.5 h stood at 4.55%.

As to `CN(C(=O)c1ccccc1NCC(=O)O)C(C1CC1)C1CC1`, the cytotoxicity at 70.5 h was -10.9%.

Turning to `CN(CC(=O)N1CCC(Cc2cccc(C(N)=O)c2)C1)C1CCCC1` (stereo unspecified), the cytotoxicity at 70.5 h came to 20.8%.

As to `CCCc1nc(CN(CC)C(=O)c2ccc3c(c2)nnn3C)no1`, the cytotoxicity at 70.5 h was -2.39%.

On to `Cc1ccsc1-c1nccn1CCS(C)(=O)=O`, for which the cytotoxicity at 70.5 h was determined as 16.2%.

On to `c1cc(-c2cn[nH]c2)ccc1CN1CCNCC1`, for which the cytotoxicity at 70.5 h is -3.83%.

Turning to `Cc1ccc2nc(C3CCCN3Cc3cccc(CCN)c3)[nH]c2c1` (stereo unspecified), the cytotoxicity at 70.5 h was -4.63%.

Consider `CC(c1nccs1)N(C)S(=O)(=O)NCc1ccccc1` (stereo unspecified), for which the cytotoxicity at 70.5 h was found to be 25.4%.

As for `CCc1nc2ccccc2n1C(CC)C(=O)N(C)CCc1noc(C)n1` (stereo unspecified), the cytotoxicity at 70.5 h was -20.6%.

`OCC1(CC2CCCCO2)CCN(c2cnc3ccccc3n2)CC1` (stereo unspecified): the cytotoxicity at 70.5 h is -12.6%.

Turning to `COC(=O)N1CCCCC1C(=O)N1CCC(c2ccncc2)CC1` (stereo unspecified), the cytotoxicity at 70.5 h was -3.09%.

For the compound `COCCC1(CO)CCCN(C(=O)c2cc(C#N)c(=O)[nH]c2C)C1` (stereo unspecified), the cytotoxicity at 70.5 h was -0.759%.

For the compound `O=C(NCc1ccc2c(c1)OCO2)c1ccccc1C1CCNC1` (stereo unspecified), the cytotoxicity at 70.5 h was determined as 38%.

On to `CN(Cc1cc2cc(F)ccc2[nH]1)C(=O)C1CC(=O)N(C(C)(C)C)C1` (stereo unspecified), for which the cytotoxicity at 70.5 h is -1.21%.
